Data: paper PMC3527734, “Peripheral injections of melanin-concentrating hormone receptor 1 antagonist S38151 decrease food intake and body weight in rodent obesity models” (Frontiers in Endocrinology, 2012)
Like-named read-outs stand apart in the source and are kept apart here. Where a SMILES comes first, the peptide text is derived from it.

Columns and labels:
[1] = detection of compound in brain of treated animals; assay type: in vivo; conditions: brains from S38151-treated (i.p.-injected) animals, LC-MS/MS, data not shown
Experimental: (§1) First, S38151 was incubated for 16 h at 4°C and 37°C in mouse plasma or in TRIS buffer (pH 7.4). Next, plasma proteins were precipitated with two volumes of acetonitrile. After centrifugation and dilution with a water/acetonitrile mixture (50/50 v/v), the supernatant was injected onto a triple quadripole mass spectrometer (Ultima, Micromass WATERS Corporation, Milford, USA). The liquid chromatographic system consisted of an Agilent 1100 analytic pump (Agilent, Santa Clara, USA) equipped with an Alpha Mos CTC autosampler (Alpha Mos, Toulouse, France). Mass detection was performed using the m/z transition 743.5 > 163, in positive electrospray. A second stability study was performed at a lower concentration (1 μM) and for 4 h, with the following sampling times: 0, 15, 45, 90, and 240 min. At each sampling time, 50 μL of plasma were precipitated with two volumes of acetonitrile, and after centrifugation were directly injected onto the LC-MS/MS system. The same treatment was used for the buffer samples.
Furthermore, we were unable to detect traces of this pseudopeptide in the brains of i.p.-injected animals. Similarly, its effect could not be correlated with aversion owing to a bad test.

[2] = stability in mouse plasma; assay type: in vitro ADME; conditions: LC-MS/MS, representative of three experiments, read-out: % S38151 remaining
Experimental: as §1
Figure 2 Studies regarding the stability of S38151. A solution of S38151 (40 μM) was incubated with either Tris buffer, pH 7.4 (hatched bars), or mouse plasma samples (dark bars) for 16 h at 4°C or 37°C. The samples were analyzed using liquid chromatography coupled to mass spectrometry. Experiments were repeated three times. The chart presented is representative of the experimental results. […]

DIO mice = test: daily i.p. S38151 in diet-induced obese mice; assay type: in vivo, mouse
Experimental: In these studies, 13-week-old female C57BL/6J, ob/ob, and MCH1-KO mice were used. The mice were maintained on a 12-h light/dark cycle (lights on at 07:30 and off at 19:30) at 22 ± 3°C, and supplied with food pellets (6 mm diameter A03, UAR Laboratory chow, Epinay Villemuisson France) and tap water ad libitum. To induce obesity in C57BL/6J (creating diet-induced obese, or DIO, mice), mice were fed a high-fat diet (60 kcal% fat, 20 kcal% protein, 20 kcal% carbohydrate, ref D12492 from Research Diets, New Brunswick, NJ08901, USA) for 8 weeks starting at 4 weeks of age. In these experiments, DIO mice, ob/ob mice, and MCH^−/−1 mice were individually housed in a modular chamber that was placed on an activity platform to concurrently measure the food intake, water intake, and activity of the mice (ADDENFI, Les Cordeliers, Paris, France). For at least 2 weeks before experimentation, mice were habituated to a diet of 6 mm diameter food pellets of the following composition: 67.5% food flour, 26.5% sucrose, 5% gum tragacanth, 1.25% magnesium stearate (A03 UAR, Orge, France), and to i.p. injection. After this habituation period, food intake, drink intake, and body weight were measured for 3 consecutive days. The mice were randomized into three groups based on their food and water intake over the three preceding 24-h periods, and on their body weight. […]
Figure 9 The effects of repeated daily S38151 injection on food and water intake, body weight, and motility in diet-induced obese (DIO) mice. […] Results are expressed as mean ± SEM (n = 8 mice per group).

MCH1 = conditions: ref Audinot et al., 2009, cited from earlier work; for Kb: full antagonist, CHO cells over-expressing MCH1
Source text: S38151 was synthesized during a process that was attempting to find peptides or pseudopeptides with affinity at MCH1 receptor that also had greater stability in biological media. This pseudopeptide is derived from another, very similar agonist, pGua (MCH7-17) (Audinot et al., [2001a], [2009]). […] This activity was specific to MCH1, since it ...

[3] = S38151 30 mg/kg i.p. daily for 16 days, data not shown
[4] = S38151 10 and 30 mg/kg i.p. daily for 5 days, significant from day 2 only at 30 mg/kg, n = 8

With CSCC[C@@H]1NC(=O)[C@@H](NC(=O)c2ccc(NC(=N)N)cc2)CSSC[C@@H](C(=O)N[C@@H](Cc2c[nH]c3ccccc23)C(=O)O)NC(=O)[C@@H]2CCCN2C(=O)[C@H](CCCNC(=N)N)NC(=O)[C@H](Cc2ccc(O)cc2)NC(=O)[C@H](C(C)C)NC(=O)[C@H](CCCNC(=N)N)NC(=O)[C@H](CC(C)C)NC1=O [S38151, p-guanidinobenzoyl-(Des-Gly10)-MCH (7–17)] (HELM PEPTIDE1{[N=C(N)Nc1ccc(C(=O)[*:2])cc1].C.M.L.R.V.Y.R.P.C.W}$PEPTIDE1,PEPTIDE1,2:R3-10:R3$$$V2.0; C-terminus assumed) the “amount of compound detectable in the brain” value [1] was “none was detected”, the remaining at 16 h, 40 μM ([2]; 4°C) was 59% and the remaining at 16 h, 40 μM ([2]; 37°C) was 1.5%. The body weight gain (DIO mice; [3]) was “significant reduction”, the glycemia and insulinemia (DIO mice; [3]) was “reduced” and the “triglycerides, free fatty acids, and fat mass” value (DIO mice; [3]) was “significant reduction”. The glycemia and insulinemia (DIO mice; S38151 30 mg/kg i.p., day 6, data not shown) was “significant reductions”, the body weight gain (DIO mice; S38151 10 and 30 mg/kg i.p. daily for 5 days, significant at day 3 and day 1, respectively) was “reduction” and the drink intake (DIO mice; [4]) was “dose-dependent inhibition”. The food intake (DIO mice; [4]) was “dose-dependent inhibition”, the motility (DIO mice; S38151 10 and 30 mg/kg i.p., day 3 to day 5) was “significant reduction” and the Ki (MCH1; [125I]-S36057 binding, Chinese hamster ovary cells over-expressing MCH1) was 80 nM. For the same molecule, the Kb (MCH1; read-out: KB, GTPγS binding assay) was 4.3 nM and the Kb (MCH1; read-out: KB, calcium flux assay) was 210 nM.
